Results taken from patent US11008314B2, “Compounds and methods for modulating interleukin-2-inducible t-cell kinase” (CORVUS PHARMACEUTICALS, INC., priority 2016, dated 2021).

What was measured:
Format in all cases: biochemical
[1] = target: JAK3 (Homo sapiens (Human), UniProt P52333); assay: IC50 against JAK3
[2] = target: TXK (Homo sapiens (Human), UniProt P42681); assay: IC50 against TXK; conditions: for TXK/ITK: ratio of TXK IC50 to ITK IC50
[3] = target: BTK (Homo sapiens (Human), UniProt Q06187); assay: IC50 against BTK
[4] = target: ITK (Homo sapiens (Human), UniProt Q08881); assay: IC50 against ITK
ITK, sequence (Q08881 whole entry): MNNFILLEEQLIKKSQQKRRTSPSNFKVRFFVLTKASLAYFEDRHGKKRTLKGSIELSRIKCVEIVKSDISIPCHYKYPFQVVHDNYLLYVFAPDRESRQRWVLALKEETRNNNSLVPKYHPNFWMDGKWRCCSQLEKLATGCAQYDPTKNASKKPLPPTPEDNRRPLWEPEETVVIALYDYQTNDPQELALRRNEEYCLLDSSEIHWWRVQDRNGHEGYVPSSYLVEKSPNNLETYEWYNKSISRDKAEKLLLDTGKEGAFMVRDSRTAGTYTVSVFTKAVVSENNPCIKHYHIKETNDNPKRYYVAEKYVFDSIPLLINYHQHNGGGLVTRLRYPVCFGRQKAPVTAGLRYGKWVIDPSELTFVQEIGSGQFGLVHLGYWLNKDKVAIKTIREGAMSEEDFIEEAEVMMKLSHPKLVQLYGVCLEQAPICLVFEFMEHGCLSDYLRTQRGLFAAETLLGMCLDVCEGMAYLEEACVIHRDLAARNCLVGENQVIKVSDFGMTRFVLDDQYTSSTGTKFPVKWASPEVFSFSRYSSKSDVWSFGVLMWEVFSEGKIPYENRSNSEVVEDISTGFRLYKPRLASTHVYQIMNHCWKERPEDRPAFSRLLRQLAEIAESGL

JAK3, sequence (P52333 whole entry, species assumed): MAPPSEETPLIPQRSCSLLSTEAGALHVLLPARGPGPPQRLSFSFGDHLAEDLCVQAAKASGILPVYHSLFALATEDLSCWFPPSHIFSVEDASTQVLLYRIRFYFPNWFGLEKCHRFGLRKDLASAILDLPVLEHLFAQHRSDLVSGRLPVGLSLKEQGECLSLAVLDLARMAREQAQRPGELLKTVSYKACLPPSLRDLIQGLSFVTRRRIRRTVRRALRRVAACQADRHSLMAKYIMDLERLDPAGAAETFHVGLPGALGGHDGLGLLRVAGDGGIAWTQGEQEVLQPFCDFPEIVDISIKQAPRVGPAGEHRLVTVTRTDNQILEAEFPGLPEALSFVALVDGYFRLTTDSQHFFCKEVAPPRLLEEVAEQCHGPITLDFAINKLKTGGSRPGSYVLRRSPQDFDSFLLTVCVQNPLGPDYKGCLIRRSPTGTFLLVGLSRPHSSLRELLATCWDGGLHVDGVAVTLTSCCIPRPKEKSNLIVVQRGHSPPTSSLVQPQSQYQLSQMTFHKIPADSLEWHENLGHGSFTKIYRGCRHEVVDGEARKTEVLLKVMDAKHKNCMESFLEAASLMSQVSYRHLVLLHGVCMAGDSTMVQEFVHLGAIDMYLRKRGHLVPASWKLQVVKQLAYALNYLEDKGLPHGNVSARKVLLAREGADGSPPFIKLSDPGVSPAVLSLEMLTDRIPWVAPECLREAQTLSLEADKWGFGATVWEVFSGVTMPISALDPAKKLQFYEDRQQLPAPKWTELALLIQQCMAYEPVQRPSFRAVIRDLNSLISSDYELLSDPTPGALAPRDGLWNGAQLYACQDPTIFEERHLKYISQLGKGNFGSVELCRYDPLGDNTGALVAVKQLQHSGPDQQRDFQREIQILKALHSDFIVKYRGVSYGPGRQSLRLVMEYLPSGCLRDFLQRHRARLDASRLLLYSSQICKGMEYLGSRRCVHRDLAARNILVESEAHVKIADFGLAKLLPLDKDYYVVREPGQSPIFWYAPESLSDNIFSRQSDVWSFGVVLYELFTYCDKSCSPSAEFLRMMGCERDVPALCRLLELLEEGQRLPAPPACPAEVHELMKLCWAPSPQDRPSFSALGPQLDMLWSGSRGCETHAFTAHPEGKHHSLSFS
TXK, sequence (P42681 whole entry, species assumed): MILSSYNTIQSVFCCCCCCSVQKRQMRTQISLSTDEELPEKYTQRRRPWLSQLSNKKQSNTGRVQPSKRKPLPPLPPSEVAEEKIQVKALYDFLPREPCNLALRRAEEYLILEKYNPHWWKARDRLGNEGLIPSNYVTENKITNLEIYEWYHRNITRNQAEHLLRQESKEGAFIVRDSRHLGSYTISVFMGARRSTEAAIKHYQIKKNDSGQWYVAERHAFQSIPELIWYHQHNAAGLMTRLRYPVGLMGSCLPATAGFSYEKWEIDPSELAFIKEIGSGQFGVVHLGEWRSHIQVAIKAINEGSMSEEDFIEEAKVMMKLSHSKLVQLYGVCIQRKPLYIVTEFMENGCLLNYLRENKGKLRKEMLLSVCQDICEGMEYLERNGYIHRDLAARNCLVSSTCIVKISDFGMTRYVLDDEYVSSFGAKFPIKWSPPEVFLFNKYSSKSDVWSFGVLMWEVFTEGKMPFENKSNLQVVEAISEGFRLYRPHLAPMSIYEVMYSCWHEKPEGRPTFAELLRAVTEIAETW
BTK, sequence (Q06187 whole entry, species assumed): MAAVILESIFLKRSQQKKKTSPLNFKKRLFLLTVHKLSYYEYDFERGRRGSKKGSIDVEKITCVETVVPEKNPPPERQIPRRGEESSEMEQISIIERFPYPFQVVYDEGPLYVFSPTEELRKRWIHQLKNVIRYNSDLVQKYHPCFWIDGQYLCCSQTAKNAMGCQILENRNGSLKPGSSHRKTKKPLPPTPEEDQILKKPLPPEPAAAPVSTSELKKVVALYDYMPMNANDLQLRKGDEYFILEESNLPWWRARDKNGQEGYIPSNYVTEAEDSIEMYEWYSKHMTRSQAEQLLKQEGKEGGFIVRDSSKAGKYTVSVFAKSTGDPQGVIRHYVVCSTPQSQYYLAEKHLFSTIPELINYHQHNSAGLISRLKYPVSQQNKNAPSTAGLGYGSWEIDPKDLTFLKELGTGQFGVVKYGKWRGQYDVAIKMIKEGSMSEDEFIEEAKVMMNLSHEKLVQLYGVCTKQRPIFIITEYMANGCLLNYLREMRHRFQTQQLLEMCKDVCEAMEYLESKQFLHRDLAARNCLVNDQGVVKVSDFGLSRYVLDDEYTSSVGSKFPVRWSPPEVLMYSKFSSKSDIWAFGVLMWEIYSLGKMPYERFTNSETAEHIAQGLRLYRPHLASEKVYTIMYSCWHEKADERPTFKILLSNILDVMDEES

Compound	IC50 [1]	IC50 [2]	TXK/ITK [2]	IC50 [3]	IC50 [4]
C=CC(=O)N1CCCN(C(=O)c2cc(Sc3cnc(NC(=O)C4CC4)s3)c(C)cc2Cl)C[C@H]1C [Compound 61]	1000 to 10000 nM	100 to 1000 nM	50.716	≥ 10000 nM	10 to 100 nM
C=CC(=O)N1CCCN(C(=O)c2cc(Sc3cnc(NC(=O)C4CC4)s3)cc(C)c2C)C[C@H]1C [Compound 63]	≥ 10000 nM	1000 to 10000 nM	61.086	≥ 10000 nM	100 to 1000 nM
C=CC(=O)N1CCN(C(=O)c2cc(Sc3cnc(NC(=O)c4cccc(CN(C)C)c4)s3)c(C)cc2OC)CC(F)C1 (centres unmarked) [Compound 66]	100 to 1000 nM	100 to 1000 nM	70.047	100 to 1000 nM	< 10 nM
C=CC(=O)N1CCN(C(=O)c2cc(Sc3cnc(NC4CC4)s3)c(C)cc2OC)CC1 [Compound 67]	1000 to 10000 nM	1000 to 10000 nM	0.634	≥ 10000 nM	≥ 10000 nM
C=CC(=O)N1CCN(C(=O)c2cc(Sc3cnc(NC(=O)C4CC4)s3)c(C)cc2C(F)(F)F)CC1 [Compound 68]	1000 to 10000 nM	100 to 1000 nM	3.6548	≥ 10000 nM	10 to 100 nM
C=CC(=O)N1CCCN(C(=O)c2cc(Sc3cnc(NC(=O)C4CC4)s3)c(C)cc2C(F)(F)F)C[C@H]1C [Compound 70]	≥ 10000 nM	1000 to 10000 nM	35.68	≥ 10000 nM	10 to 100 nM
C=CC(=O)N1CCN(C(=O)c2cc(Sc3cnc(NC(=O)C4CC4)s3)c(C)cc2C)CC1 [Compound 73]	100 to 1000 nM	10 to 100 nM	3.2627	100 to 1000 nM	< 10 nM
C=CC(=O)N1CCCN(C(=O)c2cc(Sc3cnc(NC(=O)C4CC4)s3)ccc2OC)C[C@H]1C [Compound 77]	1000 to 10000 nM	1000 to 10000 nM	95.398	≥ 10000 nM	10 to 100 nM
C=CC(=O)N1CCN(C(=O)c2cc(Sc3cnc(NC(=O)C4CC4)s3)ccc2OC)CC1 [Compound 78]	100 to 1000 nM	10 to 100 nM	10.586	100 to 1000 nM	< 10 nM
C=CC(=O)N1CCN(C(=O)c2cc(Sc3cnc(NC(=O)C4CC4)s3)c(Cl)cc2C)CC1 [Compound 80]	10 to 100 nM	10 to 100 nM	8.1619	100 to 1000 nM	< 10 nM
C=CC(=O)N1CCN(C(=O)c2cc(Sc3cnc(NC(=O)C4CCC4)s3)c(C)cc2OC)CC1 [Compound 84]	1000 to 10000 nM	10 to 100 nM	21.948	1000 to 10000 nM	< 10 nM
C=CC(=O)N1CCCN(C(=O)c2cc(Sc3cnc(NC(=O)C4CCC4)s3)c(C)cc2OC)C[C@H]1C [Compound 86]	≥ 10000 nM	1000 to 10000 nM	227.64	≥ 10000 nM	10 to 100 nM
C=CC(=O)N1CCN(C(=O)c2cc(Sc3cnc(NC(=O)c4ccncc4)s3)c(C)cc2OC)CC1 [Compound 87]	1000 to 10000 nM	100 to 1000 nM	74.161	100 to 1000 nM	< 10 nM
C=C(CN(C)C)C(=O)N1CCCN(C(=O)c2cc(Sc3cnc(NC(=O)C4CC4)s3)c(C)cc2OC)C[C@H]1C [Compound 88]	≥ 10000 nM	≥ 10000 nM	30.436	≥ 10000 nM	100 to 1000 nM
C=CC(=O)N1CCCN(C(=O)c2cc(Sc3cnc(NC(=O)c4cnsc4)s3)c(C)cc2OC)C[C@H]1C [Compound 93]	≥ 10000 nM	100 to 1000 nM	252.91	1000 to 10000 nM	< 10 nM
C=CC(=O)N1CCN(C(=O)c2cc(Sc3cnc(NC(=O)c4nccn4C)s3)c(C)cc2OC)CC1 [Compound 96]	100 to 1000 nM	10 to 100 nM	11.966	100 to 1000 nM	< 10 nM
C=CC(=O)N1CCN(C(=O)c2cc(Sc3cnc(NC(=O)c4cn(C)cn4)s3)c(C)cc2OC)CC1 [Compound 97]	1000 to 10000 nM	100 to 1000 nM	12.995	100 to 1000 nM	< 10 nM
C=CC(=O)N1CCN(C(=O)c2cc(Sc3cnc(NC(=O)C4CC4)s3)c(Cl)cc2C)C[C@H]1CC [Compound 101]	100 to 1000 nM	100 to 1000 nM	14.4	≥ 10000 nM	10 to 100 nM
C=CC(=O)N1CCN(C(=O)c2cc(Sc3cnc(NC(=O)c4cnn(CCN(C)C)c4)s3)c(C)cc2OC)CC1 [Compound 102]	100 to 1000 nM	10 to 100 nM	32.9	10 to 100 nM	< 10 nM

The remaining lines, values ahead:

IC50 [1]	IC50 [2]	TXK/ITK [2]	IC50 [3]	IC50 [4]	Compound
≥ 10000 nM	1000 to 10000 nM	21.785	≥ 10000 nM	10 to 100 nM	C=CC(=O)N1CCCN(C(=O)c2cc(Sc3cnc(NC(=O)C4CC4)s3)c(C)cc2F)C[C@H]1C [Compound 60]
1000 to 10000 nM	1000 to 10000 nM	320.16	1000 to 10000 nM	< 10 nM	C=CC(=O)N1CCCN(C(=O)c2cc(Sc3cnc(NC(=O)C4CC4)s3)c(Cl)cc2C)C[C@H]1C [Compound 62]
≥ 10000 nM	1000 to 10000 nM	11.944	≥ 10000 nM	100 to 1000 nM	C=CC(=O)N1CCCN(C(=O)c2cc(C)c(C)c(Sc3cnc(NC(=O)C4CC4)s3)c2)C[C@H]1C [Compound 64]
100 to 1000 nM	< 10 nM	0.392	10 to 100 nM	< 10 nM	C=CC(=O)N1CCN(C(=O)c2cc(Cc3cnc(NC(=O)C4CC4)s3)c(C)cc2OC)CC1 [Compound 65]
1000 to 10000 nM	100 to 1000 nM	4.9369	≥ 10000 nM	100 to 1000 nM	C=CC(=O)N1CCN(C(=O)c2cc(Sc3cnc(NC(=O)C4CC4)s3)c(C)cc2C(F)(F)F)C[C@H]1C [Compound 69]
≥ 10000 nM	1000 to 10000 nM	1.1846	≥ 10000 nM	100 to 1000 nM	C=CC(=O)N1CCCN(C(=O)c2cc(Sc3cnc(NC(=O)C4CC4)s3)c(C)cc2OC)[C@@H](C)C1 [Compound 72]
100 to 1000 nM	100 to 1000 nM	16.033	100 to 1000 nM	< 10 nM	C=CC(=O)N1CCCN(C(=O)c2cc(Sc3cnc(NC(=O)C4CC4)s3)c(C)cc2C)CC1 [Compound 74]
≥ 10000 nM	≥ 10000 nM	1	≥ 10000 nM	≥ 10000 nM	C=CC(=O)N1CCN(C(=O)c2cc(Sc3cnc(NC(=O)C4CC4)s3)c(C)cn2)CC1 [Compound 76]
100 to 1000 nM	100 to 1000 nM	21.331	≥ 10000 nM	10 to 100 nM	C=CC(=O)N1CCN(C(=O)c2cc(Sc3cnc(NC(=O)C4CC4)s3)ccc2OC)C[C@H]1C [Compound 79]
100 to 1000 nM	100 to 1000 nM	19.042	1000 to 10000 nM	< 10 nM	C=CC(=O)N1CCN(C(=O)c2cc(Sc3cnc(NC(=O)C4CC4)s3)c(Cl)cc2C)C[C@H]1C [Compound 81]
100 to 1000 nM	100 to 1000 nM	9.2468	≥ 10000 nM	10 to 100 nM	C=CC(=O)N1CCN(C(=O)c2cc(Sc3cnc(NC(=O)C4CC4)s3)c(F)cc2C)C[C@H]1C [Compound 82]
1000 to 10000 nM	1000 to 10000 nM	45.317	≥ 10000 nM	10 to 100 nM	C=CC(=O)N1CCCN(C(=O)c2cc(Sc3cnc(NC(=O)C4CC4)s3)c(F)cc2C)C[C@H]1C [Compound 83]
100 to 1000 nM	10 to 100 nM	33.582	100 to 1000 nM	< 10 nM	C=CC(=O)N1CCN(C(=O)c2cc(Sc3cnc(NC(=O)c4cnsc4)s3)c(C)cc2OC)CC1 [Compound 85]
1000 to 10000 nM	100 to 1000 nM	45.743	100 to 1000 nM	< 10 nM	C=CC(=O)N1CCN(C(=O)c2cc(Sc3cnc(NC(=O)c4cccnc4)s3)c(C)cc2OC)CC1 [Compound 89]
100 to 1000 nM	10 to 100 nM	20.093	10 to 100 nM	< 10 nM	C=CC(=O)N1CCN(C(=O)c2cc(Sc3cnc(NC(=O)c4cnn(C)c4)s3)c(C)cc2OC)CC1 [Compound 91]
100 to 1000 nM	100 to 1000 nM	19.123	100 to 1000 nM	< 10 nM	C=CC(=O)N1CCN(C(=O)c2cc(Sc3cnc(NC(=O)c4cocn4)s3)c(C)cc2OC)CC1 [Compound 92]
≥ 10000 nM	≥ 10000 nM	61.81	≥ 10000 nM	100 to 1000 nM	COc1cc(C)c(Sc2cnc(NC(=O)C3CC3)s2)cc1C(=O)N1CCCN(C(=O)/C=C/CN(C)C)[C@H](C)C1 [Compound 94]
1000 to 10000 nM	100 to 1000 nM	14.201	100 to 1000 nM	10 to 100 nM	C=CC(=O)N1CCN(C(=O)c2cc(Sc3cnc(NC(=O)c4ccccn4)s3)c(C)cc2OC)CC1 [Compound 95]
10 to 100 nM	< 10 nM	8.2157	< 10 nM	< 10 nM	C=CC(=O)N1CCN(C(=O)c2cc(Sc3cnc(Nc4ccccn4)s3)c(C)cc2OC)CC1 [Compound 98]
100 to 1000 nM	10 to 100 nM	4.279	1000 to 10000 nM	10 to 100 nM	C=CC(=O)N1CCN(C(=O)c2cc(Sc3cnc(NC(=O)C4CC4)s3)c(C)cc2Cl)C[C@H]1CC [Compound 99]
100 to 1000 nM	10 to 100 nM	8.8107	1000 to 10000 nM	< 10 nM	C=CC(=O)N1CCN(C(=O)c2cc(Sc3cnc(NC(=O)C4CC4)s3)c(C)cc2C)C[C@H]1CC [Compound 100]
